Measured values published in publication PMC4695389, “Non-classical amine recognition evolved in a large clade of olfactory receptors” (eLife, 2015).
Positions count from the first letter of the chain named. Where “and” joins values, the source holds several entries; their conditions need not be identical. Equal entries are not always repeated. Entries after “also recorded” stand apart in the source; their conditions may differ. Where two headings read alike, the source gives them in different places.

Key:
[1] = biological target: T1, zebrafish TAAR13c (Danio rerio, UniProt Q5QNP2); assay: cell-based
T1 construct: expressed in transfected cells; host or cells: HEK-293
T1 sequence (Q5QNP2 1-341): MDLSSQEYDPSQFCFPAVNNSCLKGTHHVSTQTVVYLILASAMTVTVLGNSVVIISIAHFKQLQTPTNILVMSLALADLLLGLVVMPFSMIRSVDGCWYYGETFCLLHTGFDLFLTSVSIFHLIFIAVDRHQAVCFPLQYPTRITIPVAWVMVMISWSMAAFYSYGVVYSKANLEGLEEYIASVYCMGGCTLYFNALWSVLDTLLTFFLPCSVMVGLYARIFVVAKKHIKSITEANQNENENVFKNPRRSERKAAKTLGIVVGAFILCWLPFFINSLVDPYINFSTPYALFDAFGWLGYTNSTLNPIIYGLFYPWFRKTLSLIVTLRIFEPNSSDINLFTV

[2] = biological target: T2, TAAR12i (Danio rerio, UniProt Q5QNN0, F195V/V105Y/V8A); assay: Cre-Seap reporter gene assay, TAAR12i in Hana3A cells; type: cell-based, zebrafish
T2 sequence (Q5QNN0 1-340 V8A/V105Y/F195V): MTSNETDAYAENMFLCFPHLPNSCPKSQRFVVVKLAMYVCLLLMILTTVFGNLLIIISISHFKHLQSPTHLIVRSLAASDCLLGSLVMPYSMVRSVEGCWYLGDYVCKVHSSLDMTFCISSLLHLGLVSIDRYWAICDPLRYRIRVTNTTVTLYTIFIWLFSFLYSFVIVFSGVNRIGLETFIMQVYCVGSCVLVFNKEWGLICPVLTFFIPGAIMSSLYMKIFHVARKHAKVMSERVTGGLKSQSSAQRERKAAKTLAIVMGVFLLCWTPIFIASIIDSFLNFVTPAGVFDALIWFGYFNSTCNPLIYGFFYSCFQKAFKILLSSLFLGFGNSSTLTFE

[3] = biological target: T3, zebrafish TAAR10a (Danio rerio, UniProt Q5QNP6, I156V/V182I); assay: cell-based; conditions: HEK-293 cells, Cre-Seap reporter
T3 sequence (Q5QNP6 1-336 I156V/V182I): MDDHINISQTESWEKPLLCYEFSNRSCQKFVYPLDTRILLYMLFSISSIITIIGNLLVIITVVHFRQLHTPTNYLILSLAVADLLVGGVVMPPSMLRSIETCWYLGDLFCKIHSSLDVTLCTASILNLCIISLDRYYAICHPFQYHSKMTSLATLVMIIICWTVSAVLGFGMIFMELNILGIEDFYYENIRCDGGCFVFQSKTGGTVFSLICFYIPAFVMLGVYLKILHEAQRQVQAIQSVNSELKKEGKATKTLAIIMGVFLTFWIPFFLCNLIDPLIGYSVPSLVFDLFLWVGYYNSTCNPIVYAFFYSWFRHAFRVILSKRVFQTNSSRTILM

[4] = biological target: T4, zebrafish TAAR14d (Danio rerio, UniProt U3JB35); assay: cell-based; conditions: HEK-293 cells, Cre-Seap reporter
T4 sequence (U3JB35 1-328): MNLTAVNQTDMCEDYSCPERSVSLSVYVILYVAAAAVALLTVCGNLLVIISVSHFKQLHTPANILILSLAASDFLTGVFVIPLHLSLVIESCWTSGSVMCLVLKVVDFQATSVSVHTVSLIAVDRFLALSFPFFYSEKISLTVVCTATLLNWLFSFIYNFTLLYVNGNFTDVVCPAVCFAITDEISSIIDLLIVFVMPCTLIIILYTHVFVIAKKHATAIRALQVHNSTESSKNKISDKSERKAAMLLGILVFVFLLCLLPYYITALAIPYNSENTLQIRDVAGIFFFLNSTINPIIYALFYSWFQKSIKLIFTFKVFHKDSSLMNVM

[5] = biological target: T5, zebrafish TAAR13e (Danio rerio, UniProt Q5QNP8, I215V/V266I); assay: cell-based; conditions: HEK-293 cells, Cre-Seap reporter
T5 sequence (Q5QNP8 1-341 I215V/V266I): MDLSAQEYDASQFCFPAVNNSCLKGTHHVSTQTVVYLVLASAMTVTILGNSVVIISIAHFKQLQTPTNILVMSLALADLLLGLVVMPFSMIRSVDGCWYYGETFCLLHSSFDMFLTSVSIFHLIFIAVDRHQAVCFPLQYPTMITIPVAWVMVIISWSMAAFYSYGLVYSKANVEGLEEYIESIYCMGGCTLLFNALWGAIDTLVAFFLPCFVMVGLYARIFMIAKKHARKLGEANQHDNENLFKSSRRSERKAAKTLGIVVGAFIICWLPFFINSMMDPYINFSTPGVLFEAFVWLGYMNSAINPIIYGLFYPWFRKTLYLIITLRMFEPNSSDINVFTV

[6] = tested on: goldfish; design: method as in Rolen, et al., 2003; Hara, 2006; conditions: ref Rolen, et al., 2003, Hara, 2006; cited from earlier work
[7] = biological target: zebrafish TAAR13d (Danio rerio, UniProt Q5QNQ1, I38V/T66P/V128I/V187I); assay: cell-based; conditions: for EC50: HEK-293 cells, Cre-Seap reporter
zebrafish TAAR13d, sequence (Q5QNQ1 entry or part of it I38V/T66P/V128I/V187I): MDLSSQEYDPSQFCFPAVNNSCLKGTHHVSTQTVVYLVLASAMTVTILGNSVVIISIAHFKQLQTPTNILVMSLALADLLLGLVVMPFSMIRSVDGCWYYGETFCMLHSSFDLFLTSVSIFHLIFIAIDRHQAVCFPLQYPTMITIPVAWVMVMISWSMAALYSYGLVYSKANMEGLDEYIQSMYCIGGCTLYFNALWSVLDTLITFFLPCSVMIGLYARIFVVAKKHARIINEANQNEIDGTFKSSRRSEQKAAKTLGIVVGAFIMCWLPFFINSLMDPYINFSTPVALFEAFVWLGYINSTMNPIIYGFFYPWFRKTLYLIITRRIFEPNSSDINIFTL

[8] = biological target: zebrafish TAAR13a (Danio rerio, UniProt Q5QNP9, F294L/F316L/I267M/N226K/T142R); assay: cell-based; conditions: HEK-293 cells, Cre-Seap reporter
zebrafish TAAR13a, sequence (Q5QNP9 1-341 T142R/N226K/I267M/F294L/F316L): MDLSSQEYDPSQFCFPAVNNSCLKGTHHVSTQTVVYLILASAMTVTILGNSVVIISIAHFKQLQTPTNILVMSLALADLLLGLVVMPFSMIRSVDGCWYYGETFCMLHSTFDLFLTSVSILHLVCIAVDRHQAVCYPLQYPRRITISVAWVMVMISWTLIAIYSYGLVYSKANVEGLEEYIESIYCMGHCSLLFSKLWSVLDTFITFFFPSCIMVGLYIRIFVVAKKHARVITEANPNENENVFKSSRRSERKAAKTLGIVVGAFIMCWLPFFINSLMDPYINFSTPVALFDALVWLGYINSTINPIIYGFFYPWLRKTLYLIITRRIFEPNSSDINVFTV

[9] = tested on: TAAR16c D^5.42A mutant; assay: Cre-Seap reporter gene assay, TAAR16c D^5.42A mutant; type: cell-based, zebrafish
[10] = biological target: T6, TAAR13c^D112A (Danio rerio, UniProt Q5QNP2, D112A); type: cell-based; conditions: any concentration tested, up to 1 mM
T6 construct: expressed in transfected cells; host or cells: HEK-293
T6 sequence (Q5QNP2 1-341 D112A): T1 sequence (Q5QNP2 1-341) with D112A

[11] = tested on: zebrafish; design: method as in Hussain et al., 2013; conditions: ref Hussain et al., 2013; cited from earlier work
[12] = biological target: T7, zebrafish TAAR16f (Danio rerio, UniProt A0AC58GNM0, L317F/N20S/N8I/T68S, form not given); type: cell-based; conditions: for EC50: HEK-293 cells, Cre-Seap reporter
T7 sequence (A0AC58GNM0 1-331 N8I/N20S/T68S/L317F): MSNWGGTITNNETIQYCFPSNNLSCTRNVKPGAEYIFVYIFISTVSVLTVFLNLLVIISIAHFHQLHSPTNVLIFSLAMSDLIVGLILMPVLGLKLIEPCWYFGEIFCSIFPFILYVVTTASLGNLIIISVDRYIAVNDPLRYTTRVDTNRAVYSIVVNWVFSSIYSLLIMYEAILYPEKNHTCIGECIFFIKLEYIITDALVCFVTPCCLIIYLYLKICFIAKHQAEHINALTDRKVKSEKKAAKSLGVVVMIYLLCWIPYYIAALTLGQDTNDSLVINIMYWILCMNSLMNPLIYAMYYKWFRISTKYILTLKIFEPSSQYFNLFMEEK

[13] = tested on: TAAR16f D^5.42A mutant; assay: Cre-Seap reporter gene assay, TAAR16f D^5.42A mutant; type: cell-based, zebrafish
[14] = biological target: zebrafish TAAR16c (Danio rerio, UniProt A0AC58H3H2, N266T); type: cell-based
zebrafish TAAR16c, sequence (A0AC58H3H2 entry or part of it N266T): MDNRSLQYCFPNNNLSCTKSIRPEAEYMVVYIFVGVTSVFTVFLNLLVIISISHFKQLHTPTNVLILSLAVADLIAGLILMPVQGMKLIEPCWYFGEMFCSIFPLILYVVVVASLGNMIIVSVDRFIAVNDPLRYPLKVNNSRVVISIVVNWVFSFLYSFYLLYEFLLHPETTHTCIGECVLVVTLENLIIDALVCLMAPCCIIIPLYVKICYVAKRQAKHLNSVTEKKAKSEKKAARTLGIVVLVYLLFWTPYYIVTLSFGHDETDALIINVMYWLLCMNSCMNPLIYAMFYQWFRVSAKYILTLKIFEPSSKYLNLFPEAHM

[15] = biological target: T8, TAAR10b (Danio rerio, UniProt Q5QNN3, A166T/H113R/V182I/V259M); assay: Cre-Seap reporter gene assay, TAAR10b in Hana3A cells; type: cell-based, zebrafish
T8 sequence (Q5QNN3 1-336 H113R/A166T/V182I/V259M): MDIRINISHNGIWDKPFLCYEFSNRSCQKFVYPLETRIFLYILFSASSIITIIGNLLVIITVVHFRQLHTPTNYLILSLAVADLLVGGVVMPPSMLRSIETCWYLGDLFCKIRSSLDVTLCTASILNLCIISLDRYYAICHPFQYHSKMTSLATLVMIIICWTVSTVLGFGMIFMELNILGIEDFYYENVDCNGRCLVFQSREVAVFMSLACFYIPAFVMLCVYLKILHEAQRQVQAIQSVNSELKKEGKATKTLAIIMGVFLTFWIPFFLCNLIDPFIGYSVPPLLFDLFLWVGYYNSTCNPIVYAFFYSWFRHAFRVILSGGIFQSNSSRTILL

COc1cc(CCN)ccc1O [3-methoxytyramine]
activation of wild type TAAR13c ([1]; any concentration tested): failed to activate | EC50 [2]: 100 µM

COc1ccc2[nH]cc(CCN)c2c1 [5-methoxytryptamine]
EC50 ([3]; EC50, TAAR10a): ~20 µM

NCCCCN=C(N)N [Agmatine]
EC50 [4]: ~100 µM and 100 µM | EC50 [5]: ~1 µM and 1 µM | feeding-associated pecking behavior [6]: increase feeding-associated pecking behavior

NCCc1c[nH]cn1 [Histamine]
EC50 [7]: ~7 µM | EC50 [8]: ~20 µM and 20 µM

CN1CCCCC1 [N-methylpiperidine]
response of TAAR16c with charge-neutralizing mutation of Asp^5.42 [9]: completely eliminated responses

NCCCCCN [cadaverine]
activation of TAAR13c D112A mutant [10]: abrogates cadaverine responsiveness; also recorded: failed to activate | avoidance behavior [11]: evoke avoidance behavior | feeding-associated pecking behavior [6]: increase feeding-associated pecking behavior | EC50 ([1]; HEK-293 cells, Cre-Seap reporter, read-out: EC50 (half maximal response), TAAR13c): ~10 µM and 10 µM

NCCCN [diaminopropane]
reduced sensitivity of TAAR13d relative to putrescine ([7]; compared with putrescine): ~ 3,000 fold

CC(C)CCO [isoamyl alcohol]
detection by TAAR16f [12]: failed to detect | recognition by TAAR16f at 1 mM [12]: not

CC(C)CCN [isoamylamine]
recognition by TAAR16f at 1 mM ([12]; 1 mM): recognizes | EC50 [12]: ~200 µM | EC50 ([12]; listed as Isoamylamine): 200 µM | response of TAAR16f with charge-neutralizing mutation of Asp^5.42 [13]: completely eliminated responses

C1CCNCC1 [piperidine]
agonism of TAAR16c [14]: partial agonists

NCCCCN [putrescine]
avoidance behavior [11]: evoke avoidance behavior | EC50 [7]: ~1 µM and 1 µM | feeding-associated pecking behavior [6]: increase feeding-associated pecking behavior

C1CCNC1 [pyrrolidine]
agonism of TAAR16c ([14]; any concentration tested): partial agonists

NCCc1c[nH]c2ccc(O)cc12 [serotonin]
EC50 ([3]; read-out: EC50, TAAR10a): ~0.5 µM and 0.5 µM

C1CCOC1 [tetrahydrofuran]
agonism of TAAR16c [14]: did not activate

NCCc1c[nH]c2ccccc12 [tryptamine]
EC50 ([3]; read-out: EC50, TAAR10a): ~70 µM | EC50 [15]: 50 µM
